Measured values as given in the NIST ThermoML archive (doi:10.1021/je0604232).
Numbers after ± are expanded uncertainties.

Test: molar heat capacity at constant pressure
Conditions: Liquid

Row | Structure (SMILES) | molar heat capacity at constant pressure (303.15 K, 101 kPa) | molar heat capacity at constant pressure (308.15 K, 101 kPa) | molar heat capacity at constant pressure (313.15 K, 101 kPa) | molar heat capacity at constant pressure (318.15 K, 101 kPa) | molar heat capacity at constant pressure (323.15 K, 101 kPa) | molar heat capacity at constant pressure (328.15 K, 101 kPa) | molar heat capacity at constant pressure (333.15 K, 101 kPa) | molar heat capacity at constant pressure (338.15 K, 101 kPa) | molar heat capacity at constant pressure (343.15 K, 101 kPa) | molar heat capacity at constant pressure (348.15 K, 101 kPa) | molar heat capacity at constant pressure (353.15 K, 101 kPa) | also measured
1 | CC(O)CN (configuration not stated) [1-amino-2-propanol] | 209 ± 2 J/K/mol | 213 ± 2 J/K/mol | 214 ± 2 J/K/mol | 215 ± 2 J/K/mol | 217 ± 2 J/K/mol | 218 ± 2 J/K/mol | 221 ± 2 J/K/mol | 223 ± 2 J/K/mol | 225 ± 2 J/K/mol | 228 ± 2 J/K/mol | 230 ± 2 J/K/mol | –
2 | CN(C)CCO [2-(N,N-dimethylamino)ethanol] | 213 ± 2 J/K/mol | 215 ± 2 J/K/mol | 217 ± 2 J/K/mol | 219 ± 2 J/K/mol | 221 ± 2 J/K/mol | 222 ± 2 J/K/mol | 223 ± 2 J/K/mol | 223 ± 2 J/K/mol | 223 ± 2 J/K/mol | 224 ± 2 J/K/mol | 226 ± 2 J/K/mol | –
3 | CNCCO [2-(methylamino)ethanol] | 194 ± 2 J/K/mol | 199 ± 2 J/K/mol | 200 ± 2 J/K/mol | 202 ± 2 J/K/mol | 203 ± 2 J/K/mol | 205 ± 2 J/K/mol | 206 ± 2 J/K/mol | 207 ± 2 J/K/mol | 208 ± 2 J/K/mol | 210 ± 2 J/K/mol | 212 ± 2 J/K/mol | –
4 | NCCO [2-aminoethan-1-ol] | – | – | – | – | – | – | – | – | – | – | – | molar heat capacity at constant pressure (303.15 K, 101.33 kPa): 168 ± 1 J/K/mol; molar heat capacity at constant pressure (308.15 K, 101.33 kPa): 169 ± 1 J/K/mol; molar heat capacity at constant pressure (313.15 K, 101.33 kPa): 169 ± 1 J/K/mol; molar heat capacity at constant pressure (318.15 K, 101.33 kPa): 171 ± 2 J/K/mol; molar heat capacity at constant pressure (323.15 K, 101.33 kPa): 173 ± 2 J/K/mol; molar heat capacity at constant pressure (328.15 K, 101.33 kPa): 174 ± 2 J/K/mol; molar heat capacity at constant pressure (333.15 K, 101.33 kPa): 175 ± 2 J/K/mol; molar heat capacity at constant pressure (338.15 K, 101.33 kPa): 178 ± 2 J/K/mol; molar heat capacity at constant pressure (343.15 K, 101.33 kPa): 179 ± 2 J/K/mol; molar heat capacity at constant pressure (348.15 K, 101.33 kPa): 180 ± 2 J/K/mol; molar heat capacity at constant pressure (353.15 K, 101.33 kPa): 182 ± 2 J/K/mol
5 | NCCCO [3-amino-1-propanol] | 204 ± 2 J/K/mol | 207 ± 2 J/K/mol | 208 ± 2 J/K/mol | 208 ± 2 J/K/mol | 209 ± 2 J/K/mol | 210 ± 2 J/K/mol | 211 ± 2 J/K/mol | 213 ± 2 J/K/mol | 214 ± 2 J/K/mol | 216 ± 2 J/K/mol | 217 ± 2 J/K/mol | –
6 | NCCNCCO [N-(2-aminoethyl)ethanolamine] | 279 ± 2 J/K/mol | 284 ± 2 J/K/mol | 285 ± 2 J/K/mol | 286 ± 2 J/K/mol | 287 ± 2 J/K/mol | 289 ± 2 J/K/mol | 290 ± 2 J/K/mol | 292 ± 2 J/K/mol | 293 ± 2 J/K/mol | 295 ± 2 J/K/mol | 296 ± 2 J/K/mol | –
7 | CN(CCO)CCO [N-methyldiethanolamine] | – | – | – | – | – | – | – | – | – | – | – | molar heat capacity at constant pressure (303.15 K, 101.33 kPa): 273 ± 2 J/K/mol; molar heat capacity at constant pressure (308.15 K, 101.33 kPa): 276 ± 2 J/K/mol; molar heat capacity at constant pressure (313.15 K, 101.33 kPa): 279 ± 2 J/K/mol; molar heat capacity at constant pressure (318.15 K, 101.33 kPa): 282 ± 2 J/K/mol; molar heat capacity at constant pressure (323.15 K, 101.33 kPa): 285 ± 2 J/K/mol; molar heat capacity at constant pressure (328.15 K, 101.33 kPa): 288 ± 2 J/K/mol; molar heat capacity at constant pressure (333.15 K, 101.33 kPa): 290 ± 2 J/K/mol; molar heat capacity at constant pressure (338.15 K, 101.33 kPa): 294 ± 2 J/K/mol; molar heat capacity at constant pressure (343.15 K, 101.33 kPa): 298 ± 2 J/K/mol; molar heat capacity at constant pressure (348.15 K, 101.33 kPa): 301 ± 3 J/K/mol; molar heat capacity at constant pressure (353.15 K, 101.33 kPa): 304 ± 3 J/K/mol
